Test results from ChEMBL document CHEMBL3124876, “A perylene derivative regulates HIF-1α and Stat3 signaling pathways” (Bioorg Med Chem, 2014).
Activity calls are given as the source filed them. The calls are words filed in the database; no cut-off is given here.

Assays:
MCF7 = experiment: Induction of apoptosis in human MCF7 cells assessed as reduction in cell viability at 10 uM after 12 to 48 hrs by MTT assay; assay type: functional, cell-based
[1] = biological target: Tyrosine-protein kinase JAK2 (Homo sapiens) (UniProt O60674); experiment: Inhibition of JAK2 phosphorylation in human MDA-MB-231 cells at 0.05 to 10 uM by Western blotting analysis; assay type: cell-based
PANC-1 [2] = experiment: Antitumor activity against human PANC1 cells xenografted in Balb nu/nu mouse assessed as tumor regression at 2 mg/kg, ip administered every other day for 10 days measured after 19 days; assay type: functional, organism-based; design: dose 2 mg/kg
[3] = biological target: Proto-oncogene tyrosine-protein kinase Src (Homo sapiens) (UniProt P12931); experiment: Inhibition of Src kinase (unknown origin) phosphorylation at 10 uM after 6 hrs by cell-based Western blotting analysis
[4] = biological target: Proto-oncogene tyrosine-protein kinase Src (Homo sapiens) (UniProt P12931); experiment: Inhibition of […] phosphorylation in human MDA-MB-231 cells at 0.05 to 10 uM by Western blotting analysis; assay type: cell-based
[5] = biological target: Hypoxia-inducible factor 1-alpha (Homo sapiens) (UniProt Q16665); experiment: Inhibition of HIF-1 alpha in human PANC1 cells after 18 hrs by Western blotting analysis in hypoxia condition in presence of T40214; assay type: cell-based; details: PANC-1
Homo sapiens = species: Homo sapiens; experiment: Inhibition of telomerase (unknown origin)
[6] = biological target: Histone acetyltransferase p300 (Homo sapiens) (UniProt Q09472); experiment: Inhibition of P300 in human MDA-MB-231 cells at 1 to 20 uM by Western blotting analysis; assay type: cell-based
MDA-MB-468 [7] = experiment: Reduction of total Stat3 level in human MDA-MB-468 cells at 1 to 20 uM by Western blotting analysis; assay type: functional, cell-based
MDA-MB-468 [8] = experiment: Inhibition of HIF-1 in human MDA-MB-468 cells assessed as reduction of VEGF mRNA expression at 5 to 10 uM by RT-PCR analysis in hypoxia condition; assay type: cell-based
PANC-1 [9] = experiment: Inhibition of ERK in human PANC1 cells at 1 to 20 uM by Western blotting analysis; assay type: cell-based
OVCAR-3 = experiment: Reduction of total Stat3 level in human OVCAR3 cells at 1 to 20 uM by Western blotting analysis; assay type: functional, cell-based
MDA-MB-231 [10] = experiment: Induction of apoptosis in human MDA-MB-231 cells assessed as reduction in cell viability at 8 uM after 12 to 48 hrs by MTT assay; assay type: functional, cell-based
[11] = biological target: Signal transducer and activator of transcription 3 (Homo sapiens) (UniProt P40763); details: PANC-1, 0.5 to 20 uM
Description: Inhibition of Stat3 phosphorylation in human PANC1 cells assessed as inhibition of Bcl2 expression at 0.5 to 20 uM by Western blotting analysis in hypoxia condition

[12] = biological target: Histone acetyltransferase p300 (Homo sapiens) (UniProt Q09472); experiment: Inhibition of P300 in human PC3 cells after 18 hrs by Western blotting analysis in hypoxia condition; assay type: cell-based; details: PC-3
[13] = biological target: Hypoxia-inducible factor 1-alpha (Homo sapiens) (UniProt Q16665); experiment: Inhibition of HIF-1 alpha in human MDA-MB-468 cells assessed as proteasomal degradation at 4 to 7 uM after 18 hrs by immunoblotting analysis in hypoxia condition; assay type: cell-based
[14] = biological target: Tyrosine-protein kinase JAK2 (Homo sapiens) (UniProt O60674); experiment: Inhibition of JAK2 (unknown origin) phosphorylation at 10 uM after 6 hrs by cell-based Western blotting analysis
[15] = biological target: Histone acetyltransferase p300 (Homo sapiens) (UniProt Q09472); experiment: Inhibition of P300 in human MDA-MB-468 cells at 1 to 20 uM by Western blotting analysis; assay type: cell-based
[16] = biological target: Signal transducer and activator of transcription 3 (Homo sapiens) (UniProt P40763); details: MDA-MB-468, 1 to 20 uM
Description: Inhibition of Stat3 phosphorylation in human MDA-MB-468 cells assessed as inhibition of Bcl2 expression at 1 to 20 uM by Western blotting analysis in normoxia condition

[17] = biological target: Hypoxia-inducible factor 1-alpha (Homo sapiens) (UniProt Q16665); experiment: Inhibition of GST-tagged HIF-1 alpha (531 to 826) (unknown origin) expressed in Escherichia coli BL21(DE3) assessed as inhibition of GST-tagged HIF-1 alpha/p300 interaction at 5 ug after overnight incubation by pull down assay in hypoxia condition
[18] = biological target: T1, Signal transducer and activator of transcription 1-alpha/beta (Homo sapiens) (UniProt P42224); experiment: Inhibition of Stat1 phosphorylation in human MDA-MB-231 cells at 0.05 to 10 uM by Western blotting analysis; assay type: cell-based
T1 sequence (whole entry): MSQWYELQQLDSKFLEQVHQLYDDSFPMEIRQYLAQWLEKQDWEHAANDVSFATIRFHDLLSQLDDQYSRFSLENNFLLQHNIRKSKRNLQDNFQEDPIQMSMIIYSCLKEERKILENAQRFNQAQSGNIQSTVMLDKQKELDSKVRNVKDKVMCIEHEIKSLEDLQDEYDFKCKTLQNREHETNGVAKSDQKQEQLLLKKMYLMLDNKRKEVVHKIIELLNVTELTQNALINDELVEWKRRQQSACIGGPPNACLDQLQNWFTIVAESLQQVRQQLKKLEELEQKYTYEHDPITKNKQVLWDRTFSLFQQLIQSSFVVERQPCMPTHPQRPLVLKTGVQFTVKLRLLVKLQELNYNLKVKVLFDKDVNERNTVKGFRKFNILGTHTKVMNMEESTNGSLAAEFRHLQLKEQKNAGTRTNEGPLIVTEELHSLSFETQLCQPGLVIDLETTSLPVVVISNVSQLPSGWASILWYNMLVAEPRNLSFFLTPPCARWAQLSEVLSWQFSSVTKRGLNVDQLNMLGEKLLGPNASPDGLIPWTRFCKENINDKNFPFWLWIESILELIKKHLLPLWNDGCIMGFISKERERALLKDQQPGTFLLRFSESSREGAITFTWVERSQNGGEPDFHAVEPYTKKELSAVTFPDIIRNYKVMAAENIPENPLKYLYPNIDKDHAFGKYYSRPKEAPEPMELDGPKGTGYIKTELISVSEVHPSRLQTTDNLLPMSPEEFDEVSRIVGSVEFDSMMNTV

[19] = Antitumor activity against human PANC1 cells xenografted in Balb nu/nu mouse assessed as mean tumor weight at 2 mg/kg, ip administered every other day for 10 days measured after 19 days (reference value: 0.5 +/- 0.05 g); assay type: functional, PANC-1; details: route intraperitoneal
[20] = biological target: Hypoxia-inducible factor 1-alpha (Homo sapiens) (UniProt Q16665); experiment: Inhibition of HIF-1 alpha in human OVCAR3 cells assessed as inhibition of Bcl2 expression at 1 to 20 uM by Western blotting analysis in normoxia condition; assay type: cell-based; details: OVCAR-3
[21] = biological target: Hypoxia-inducible factor 1-alpha (Homo sapiens) (UniProt Q16665); experiment: Inhibition of HIF-1 alpha in human MDA-MB-468 cells assessed as proteasomal degradation at 4 to 7 uM after 18 hrs by immunoblotting analysis in hypoxia condition in presence of MG132; assay type: cell-based
[22] = biological target: Aryl hydrocarbon receptor nuclear translocator (Homo sapiens) (UniProt P27540); experiment: Inhibition of HIF-1 beta in human PC3 cells after 18 hrs by Western blotting analysis in hypoxia condition; assay type: cell-based; details: PC-3
[23] = biological target: Tyrosine-protein kinase JAK2 (Homo sapiens) (UniProt O60674); experiment: Inhibition of JAK2 (unknown origin) assessed as total JAK2 level at 10 uM after 6 hrs by cell-based Western blotting analysis
MDA-MB-231 [24] = experiment: Reduction of total Stat3 level in human MDA-MB-231 cells at 0.05 to 20 uM by Western blotting analysis; assay type: functional, cell-based
[25] = biological target: Hypoxia-inducible factor 1-alpha (Homo sapiens) (UniProt Q16665); experiment: Inhibition of HIF-1 alpha in human PANC1 cells assessed as inhibition of Bcl2 expression at 1 to 20 uM by Western blotting analysis in hypoxia condition; assay type: cell-based; details: PANC-1
[26] = Induction of apoptosis in human MCF10A cells assessed as reduction in cell viability at 1 to 10 uM by MTT assay; assay type: cell-based; details: mcf-10a

Sequence of Histone acetyltransferase p300 (Homo sapiens) (Q09472 whole entry): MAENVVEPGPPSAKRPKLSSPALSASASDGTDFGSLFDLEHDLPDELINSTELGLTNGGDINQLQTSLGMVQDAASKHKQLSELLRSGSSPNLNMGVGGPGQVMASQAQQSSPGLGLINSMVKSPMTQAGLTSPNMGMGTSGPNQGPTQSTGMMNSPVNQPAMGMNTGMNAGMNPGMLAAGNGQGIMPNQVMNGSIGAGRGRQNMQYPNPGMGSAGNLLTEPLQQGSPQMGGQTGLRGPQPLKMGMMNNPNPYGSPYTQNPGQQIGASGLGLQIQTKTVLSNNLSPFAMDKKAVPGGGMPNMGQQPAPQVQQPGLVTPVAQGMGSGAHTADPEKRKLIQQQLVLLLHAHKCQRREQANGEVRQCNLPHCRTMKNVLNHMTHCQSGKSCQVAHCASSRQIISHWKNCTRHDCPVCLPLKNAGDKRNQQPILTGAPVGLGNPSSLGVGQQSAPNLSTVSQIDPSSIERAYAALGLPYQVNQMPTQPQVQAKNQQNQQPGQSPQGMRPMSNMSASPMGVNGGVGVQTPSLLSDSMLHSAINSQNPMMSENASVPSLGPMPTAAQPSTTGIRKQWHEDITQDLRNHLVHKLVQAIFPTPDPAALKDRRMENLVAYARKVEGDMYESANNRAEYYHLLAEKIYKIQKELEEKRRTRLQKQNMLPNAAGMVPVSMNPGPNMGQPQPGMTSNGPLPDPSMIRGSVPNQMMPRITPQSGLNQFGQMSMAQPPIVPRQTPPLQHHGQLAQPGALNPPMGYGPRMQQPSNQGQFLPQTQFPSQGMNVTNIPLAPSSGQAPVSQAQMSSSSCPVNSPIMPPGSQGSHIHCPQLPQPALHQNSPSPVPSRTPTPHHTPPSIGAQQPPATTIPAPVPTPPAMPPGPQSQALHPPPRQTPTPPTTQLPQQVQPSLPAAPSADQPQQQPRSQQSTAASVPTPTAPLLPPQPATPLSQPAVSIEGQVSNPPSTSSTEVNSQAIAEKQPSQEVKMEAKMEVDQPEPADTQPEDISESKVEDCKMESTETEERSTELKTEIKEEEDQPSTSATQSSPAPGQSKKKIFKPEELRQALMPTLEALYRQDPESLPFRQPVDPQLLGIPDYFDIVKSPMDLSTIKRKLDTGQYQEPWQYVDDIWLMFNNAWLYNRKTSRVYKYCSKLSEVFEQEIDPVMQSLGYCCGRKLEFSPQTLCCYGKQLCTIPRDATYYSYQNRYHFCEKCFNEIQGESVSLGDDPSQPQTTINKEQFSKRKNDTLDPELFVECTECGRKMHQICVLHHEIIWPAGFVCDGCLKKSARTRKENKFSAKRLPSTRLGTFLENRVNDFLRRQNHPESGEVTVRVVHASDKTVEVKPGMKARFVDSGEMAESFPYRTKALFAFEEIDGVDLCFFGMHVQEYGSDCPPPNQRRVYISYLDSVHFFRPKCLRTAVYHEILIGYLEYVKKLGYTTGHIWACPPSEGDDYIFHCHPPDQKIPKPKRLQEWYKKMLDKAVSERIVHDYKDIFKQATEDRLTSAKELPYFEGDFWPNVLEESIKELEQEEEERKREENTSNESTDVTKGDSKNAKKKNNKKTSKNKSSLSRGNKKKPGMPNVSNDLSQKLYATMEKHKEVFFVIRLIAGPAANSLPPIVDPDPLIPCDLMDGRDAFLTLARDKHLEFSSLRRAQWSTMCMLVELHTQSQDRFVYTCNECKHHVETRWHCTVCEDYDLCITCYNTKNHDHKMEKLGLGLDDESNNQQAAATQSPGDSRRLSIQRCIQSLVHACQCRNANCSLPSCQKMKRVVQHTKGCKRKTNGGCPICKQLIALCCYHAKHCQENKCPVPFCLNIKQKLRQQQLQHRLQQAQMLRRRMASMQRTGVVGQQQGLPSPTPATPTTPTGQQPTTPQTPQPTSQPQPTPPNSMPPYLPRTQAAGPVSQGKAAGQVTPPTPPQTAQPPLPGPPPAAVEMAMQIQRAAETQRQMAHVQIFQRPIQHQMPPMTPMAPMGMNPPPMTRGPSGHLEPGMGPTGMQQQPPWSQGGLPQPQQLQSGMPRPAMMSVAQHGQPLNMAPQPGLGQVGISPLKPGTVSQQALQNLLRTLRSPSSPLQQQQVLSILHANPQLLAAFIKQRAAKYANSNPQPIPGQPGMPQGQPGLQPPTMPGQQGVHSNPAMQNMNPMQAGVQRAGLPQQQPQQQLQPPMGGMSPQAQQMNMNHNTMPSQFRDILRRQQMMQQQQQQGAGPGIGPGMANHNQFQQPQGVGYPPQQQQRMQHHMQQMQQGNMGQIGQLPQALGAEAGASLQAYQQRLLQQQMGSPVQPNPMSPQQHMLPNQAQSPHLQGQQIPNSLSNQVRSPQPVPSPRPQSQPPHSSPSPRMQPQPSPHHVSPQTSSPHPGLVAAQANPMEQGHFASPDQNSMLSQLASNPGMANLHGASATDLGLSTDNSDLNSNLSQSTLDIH
Sequence of Hypoxia-inducible factor 1-alpha (Homo sapiens) (Q16665 whole entry, looked up): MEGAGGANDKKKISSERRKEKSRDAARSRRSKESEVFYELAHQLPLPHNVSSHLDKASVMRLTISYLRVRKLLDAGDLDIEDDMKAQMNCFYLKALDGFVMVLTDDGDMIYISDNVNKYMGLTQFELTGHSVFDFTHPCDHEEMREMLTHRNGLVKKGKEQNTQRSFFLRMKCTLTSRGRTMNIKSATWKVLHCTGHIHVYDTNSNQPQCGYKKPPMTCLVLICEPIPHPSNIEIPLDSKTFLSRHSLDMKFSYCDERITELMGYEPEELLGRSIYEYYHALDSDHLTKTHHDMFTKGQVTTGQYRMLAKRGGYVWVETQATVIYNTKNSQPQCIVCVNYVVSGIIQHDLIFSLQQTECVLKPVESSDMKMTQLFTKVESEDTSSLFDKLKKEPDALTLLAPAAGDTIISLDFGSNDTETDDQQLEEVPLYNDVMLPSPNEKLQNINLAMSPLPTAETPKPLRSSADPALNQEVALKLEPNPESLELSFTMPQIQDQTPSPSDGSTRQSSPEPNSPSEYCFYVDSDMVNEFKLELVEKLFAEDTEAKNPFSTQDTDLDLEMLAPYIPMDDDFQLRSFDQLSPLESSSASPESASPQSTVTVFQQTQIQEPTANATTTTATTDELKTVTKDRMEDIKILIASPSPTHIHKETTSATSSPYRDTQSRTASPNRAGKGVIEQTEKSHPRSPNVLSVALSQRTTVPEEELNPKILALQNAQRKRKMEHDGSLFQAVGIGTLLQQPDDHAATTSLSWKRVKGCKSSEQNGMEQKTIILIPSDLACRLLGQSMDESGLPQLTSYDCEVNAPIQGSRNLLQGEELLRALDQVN
Sequence of Tyrosine-protein kinase JAK2 (Homo sapiens) (O60674 whole entry): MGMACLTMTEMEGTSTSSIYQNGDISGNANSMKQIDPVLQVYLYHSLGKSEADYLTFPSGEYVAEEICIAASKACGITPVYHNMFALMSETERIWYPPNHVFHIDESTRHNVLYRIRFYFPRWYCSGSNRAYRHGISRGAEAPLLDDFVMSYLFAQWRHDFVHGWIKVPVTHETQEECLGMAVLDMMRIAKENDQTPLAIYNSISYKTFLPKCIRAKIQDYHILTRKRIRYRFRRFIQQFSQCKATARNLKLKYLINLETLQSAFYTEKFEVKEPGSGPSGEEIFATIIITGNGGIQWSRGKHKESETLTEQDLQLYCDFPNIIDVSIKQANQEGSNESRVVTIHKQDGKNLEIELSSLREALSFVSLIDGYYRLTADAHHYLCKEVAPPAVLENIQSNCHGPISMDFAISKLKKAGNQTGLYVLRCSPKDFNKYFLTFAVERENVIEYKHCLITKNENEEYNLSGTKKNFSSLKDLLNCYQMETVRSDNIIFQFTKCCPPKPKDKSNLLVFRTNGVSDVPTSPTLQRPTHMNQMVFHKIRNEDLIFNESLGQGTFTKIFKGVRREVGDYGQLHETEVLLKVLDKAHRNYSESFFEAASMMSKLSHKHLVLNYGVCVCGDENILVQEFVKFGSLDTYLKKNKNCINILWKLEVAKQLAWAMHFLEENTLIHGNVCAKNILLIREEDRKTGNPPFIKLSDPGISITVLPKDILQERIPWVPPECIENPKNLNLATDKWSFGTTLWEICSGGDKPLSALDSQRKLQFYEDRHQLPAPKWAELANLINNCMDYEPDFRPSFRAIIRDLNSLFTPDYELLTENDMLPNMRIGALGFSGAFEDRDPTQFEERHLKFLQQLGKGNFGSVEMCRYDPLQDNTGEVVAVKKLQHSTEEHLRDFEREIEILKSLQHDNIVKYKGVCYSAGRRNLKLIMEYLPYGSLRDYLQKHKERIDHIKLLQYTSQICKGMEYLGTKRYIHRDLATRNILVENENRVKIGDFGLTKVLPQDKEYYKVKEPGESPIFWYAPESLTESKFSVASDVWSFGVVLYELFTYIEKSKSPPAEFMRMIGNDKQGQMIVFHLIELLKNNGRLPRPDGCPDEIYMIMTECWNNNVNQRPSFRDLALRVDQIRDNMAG
Sequence of Proto-oncogene tyrosine-protein kinase Src (Homo sapiens) (P12931 2-536 limits assumed): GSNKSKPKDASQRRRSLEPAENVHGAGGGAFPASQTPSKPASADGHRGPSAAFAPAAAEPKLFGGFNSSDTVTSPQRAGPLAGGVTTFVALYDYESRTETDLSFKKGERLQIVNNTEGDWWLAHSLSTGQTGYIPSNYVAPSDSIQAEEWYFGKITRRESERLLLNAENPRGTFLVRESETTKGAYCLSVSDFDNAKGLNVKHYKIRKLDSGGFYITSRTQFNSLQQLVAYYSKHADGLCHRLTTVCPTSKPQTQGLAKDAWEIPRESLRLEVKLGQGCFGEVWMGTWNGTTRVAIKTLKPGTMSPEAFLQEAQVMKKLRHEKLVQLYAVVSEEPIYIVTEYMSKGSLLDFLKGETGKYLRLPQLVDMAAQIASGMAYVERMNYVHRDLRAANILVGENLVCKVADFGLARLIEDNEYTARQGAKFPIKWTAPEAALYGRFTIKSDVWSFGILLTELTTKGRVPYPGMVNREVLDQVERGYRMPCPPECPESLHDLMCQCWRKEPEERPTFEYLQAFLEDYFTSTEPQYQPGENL

inhibition [1]: inactive
inhibition [3]: inactive
inhibition [4]: inactive
inhibition [5]: Active
inhibition (Homo sapiens): Active
inhibition [6]: inactive
inhibition [11]: Active
inhibition [12]: inactive
inhibition [13]: Active
inhibition [14]: inactive
inhibition [15]: inactive
inhibition [16]: Active
inhibition [17]: Active
inhibition [18]: inactive
inhibition [20]: Active
inhibition [21]: Active
inhibition [22]: inactive
inhibition [23]: inactive
inhibition [25]: Active
SMILES: CN(C)CCCN1C(=O)c2ccc3c4ccc5c6c(ccc(c7ccc(c2c37)C1=O)c64)C(=O)N(CCCN(C)C)C5=O
Activity (MCF7): Active
Activity (PANC-1 [2]): Active
Activity (MDA-MB-468 [7]): Active
inhibition (MDA-MB-468 [8]): Active
inhibition (PANC-1 [9]): inactive
Activity (OVCAR-3): Active
Activity (MDA-MB-231 [10]): Active
Activity [19]: 0.06 g
Activity (MDA-MB-231 [24]): Active
Activity [26]: Non-toxic
